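Cultured in 96-well plates, cells were exposed to test compound for 48 hours across five concentrations. GI50 is the concentration that inhibits growth by half.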 Activity calls are given as the source filed them. Cut-off read from the data, not from the text of the source: active = GI50 up to about 1.1 µM and inactive = higher.
Assays:
Assay in all cases: NCI tumour cell line growth inhibition, 48 h
ACHN = system: ACHN
CCRF-CEM = system: CCRF-CEM
DU-145 = system: DU-145
EKVX = system: EKVX
IGROV-1 = system: IGROV-1
MCF7 = system: MCF7
Malme-3M = system: Malme-3M
OVCAR-3 = system: OVCAR-3
OVCAR-8 = system: OVCAR-8
SF-268 = system: SF-268
SK-MEL-2 = system: SK-MEL-2
SK-MEL-5 = system: SK-MEL-5
SW-620 = system: SW-620
U-251 = system: U-251
SNB-19 = system: SNB-19

Structure (SMILES) | GI50 (ACHN) | GI50 (CCRF-CEM) | GI50 (DU-145) | GI50 (EKVX) | GI50 (IGROV-1) | GI50 (MCF7) | GI50 (Malme-3M) | GI50 (OVCAR-3) | GI50 (OVCAR-8) | GI50 (SF-268) | GI50 (SK-MEL-2) | GI50 (SK-MEL-5) | GI50 (SW-620) | GI50 (U-251) | GI50 (SNB-19)
CC(=O)/N=C1/N(/C=C2\C(=O)Oc3ccccc3C2=O)C(=O)/C(=C/c2ccc(Cl)cc2Cl)N1C | > 100 µM (inactive) | 66.8 µM (inactive) | > 100 µM (inactive) | 18.7 µM (inactive) | 40 µM (inactive) | > 100 µM (inactive) | > 100 µM (inactive) | 59.2 µM (inactive) | > 100 µM (inactive) | 28.8 µM (inactive) | 71.4 µM (inactive) | 10.9 µM (inactive) | 50.6 µM (inactive) | 52.6 µM (inactive) | –
CCOC(=O)C(CC#Cc1ccc(C#CCC(NC(C)=O)C(=O)OCC)cc1)NC(C)=O (stereo not drawn) | > 100 µM (inactive) | > 100 µM (inactive) | > 100 µM (inactive) | > 100 µM (inactive) | > 100 µM (inactive) | > 100 µM (inactive) | > 100 µM (inactive) | > 100 µM (inactive) | > 100 µM (inactive) | > 100 µM (inactive) | > 100 µM (inactive) | > 100 µM (inactive) | > 100 µM (inactive) | – | > 100 µM (inactive)
CCCCCC/C=C\CCCCCCCCC(=O)c1cccc(OC)c1OC | > 100 µM (inactive) | 35.6 µM (inactive) | > 100 µM (inactive) | > 100 µM (inactive) | 35.4 µM (inactive) | > 10 µM (inactive) | > 100 µM (inactive) | – | > 100 µM (inactive) | > 100 µM (inactive) | > 100 µM (inactive) | 15.2 µM (inactive) | > 100 µM (inactive) | > 100 µM (inactive) | > 100 µM (inactive)
Cc1cccc2nc3cccc(C(=O)NCCC[N+](C)(CCCNC(=O)c4cccc5nc6cccc(C)c6nc45)Cc4ccc([N+](=O)[O-])n4C)c3nc12 | 0.321 µM (active) | 0.94 µM (active) | 1.45 µM (inactive) | 2.1 µM (inactive) | 0.703 µM (active) | 0.552 µM (active) | 35.9 µM (inactive) | 3.98 µM (inactive) | 0.49 µM (active) | – | 8.32 µM (inactive) | 2.89 µM (inactive) | 0.284 µM (active) | 0.456 µM (active) | 13.1 µM (inactive)
COc1ccc(/N=C(/C[S+]([O-])c2ccc(C)cc2)C(F)(F)F)cc1 (stereo not drawn) | 50.6 µM (inactive) | 61.9 µM (inactive) | > 100 µM (inactive) | > 100 µM (inactive) | > 100 µM (inactive) | > 100 µM (inactive) | > 100 µM (inactive) | > 100 µM (inactive) | > 100 µM (inactive) | – | 50.2 µM (inactive) | > 100 µM (inactive) | > 100 µM (inactive) | > 100 µM (inactive) | 71.8 µM (inactive)
CCN1CCC(O)(c2ccc(Oc3ccc(F)cc3)cc2)C(C(=O)c2ccc(Oc3ccc(F)cc3)cc2)C1 (stereo not drawn) | 13.8 µM (inactive) | 10.1 µM (inactive) | 12.2 µM (inactive) | 16.6 µM (inactive) | 11 µM (inactive) | 11.5 µM (inactive) | 15.4 µM (inactive) | 15.2 µM (inactive) | 15 µM (inactive) | 16.9 µM (inactive) | 17.2 µM (inactive) | – | 15.6 µM (inactive) | 16.2 µM (inactive) | 15.8 µM (inactive)
CC(=O)Oc1ccccc1C(=O)O [ASPIRIN] | > 100 µM (inactive) | > 100 µM (inactive) | > 100 µM (inactive) | > 100 µM (inactive) | – | > 100 µM (inactive) | > 100 µM (inactive) | > 100 µM (inactive) | > 100 µM (inactive) | > 100 µM (inactive) | > 100 µM (inactive) | > 100 µM (inactive) | > 100 µM (inactive) | > 100 µM (inactive) | > 100 µM (inactive)
